According to US20080114063A1, “Use of 2,5-Dihydroxybenzene Derivatives for the Treatment of Tissue Reactive Diseases” (Action Medicines, priority 2006, published 2008):
“Also recorded” adds a separate entry of the source.

Columns and labels:
[1] = molecular target: fibroblast growth factor-1 (FGF-1) (Homo sapiens, UniProt P05230); assay: Co-crystallization with FGF-1 (crystal diffraction); assay type: binding; conditions: electron density contoured at 1σ, site close to that of 2,5-dihydroxybenzenesulfonic acid
Protocol: Based on the crystal diffraction of the FGF-1:2-acetoxy-5-hydroxybenzene sulfonic acid, FGF-1:5-acetoxy-2-hydroxybenzene sulfonic acid and FGF-1:2,5-diacetoxybenzene sulfonic acid complexes, the structures of the complexes were calculated and represented. FIGS. 20, 21 and 22, which show the surface of the dyed protein according to its electrostatic potential (light grey: negative charge; dark grey: positive charge; white: lack of charge), show the manner in which 2-acetoxy-5-hydroxybenzene sulfonic acid, 5-acetoxy-2-hydroxybenzene sulfonic acid and 2,5-diacetoxybenzene sulfonic acid interact, respectively, with FGF-1.

[2] = tested on: fibroblast growth factor-1 (FGF-1) induced mitogenesis in Balb/c 3T3 fibroblasts; assay: Inhibition of FGF-1 induced mitogenesis in quiescent Balb/c 3T3 fibroblast cultures; assay type: cell-based; conditions: quiescent cultures of Balb/c 3T3 fibroblasts
Protocol: The evaluated compounds were used in the form of potassium salt, except in the first case in which calcium salt was used. The experiments were carried out as described in Fernández-Tornero C et al. J Biol Chem, 2003.

rat C6 glioma cells = assay: Proliferation of rat glioma C6 cells (crystal violet); assay type: cell-based; conditions: 500 μM, 48 h, crystal violet absorbance at 595 nm
Protocol: FIG. 19. […] 5A-2HBS and 2A-5HBS were administered or not (control) after seeding C6 cells in 24 well plates (10^4 per well) until they were fixed 48 hours later. Data are expressed as the mean ±SEM of the percentage of absorbance at 595 nm obtained in control cultures, which is proportional to the number of cells stained with crystal violet. Data were obtained from 3 cultures for each treatment and 6 control cultures.
The cell line used was the C6 cell line and the experiment was carried out as described in examples 2 and 3. Once adhered, the cells were treated or not (controls) with (5A-2HBS) (500 μM) or (2A-5HBS) (500 μM) and they were allowed to proliferate for 48 h. After this time the glioma cell proliferation was evaluated by means of staining the fixed cells with crystal violet. The number of cells is proportional to the amount of retained dye, which was determined spectrophotometrically by measuring the absorbance at 595 nm once the dye was extracted from the cells.

OVA-sensitized mice = assay: Experimentally induced (OVA) asthma in mice: methacholine bronchoconstriction and BAL cell count; assay type: in vivo, Balb/c mice; conditions: for methacholine induced bronchoconstriction (Penh): methacholine 5 and 20 mg/mL
Protocol: 6-9 week old Balb/c mice were used. The ovoalbumin (OVA)/aluminum complex was obtained after dissolving OVA (500 μg/mL) in PBS, and mixing it with an equal volume of 10% aluminum potassium sulfate at pH 6.5 for 1 hour. After centrifuging the pellet (750×g for 5 minutes) the OVA/aluminum pellet was resuspended in distilled water. On day 0, the mice were intraperitoneally injected with 100 μg of OVA/aluminum. Eight days later, the mice were anesthetized and exposed to 250 μg of OVA. Later, they were administered 125 μg of OVA on days 15, 18 and 21. Each […] received sublingual administration of OVA.
The following treatments were administered to the animals: (i.p.) vehicle from day 2, potassium 2,5-diacetoxybencene sulfonate (DABS; 100 mg/kg/day, i.p.) from day 2, DABS (100 mg/kg/day, i.p.) from day 8 and Combivent (20 μg/200 μg in aerosol) on days 20, 21 and 22, the latter as a reference treatment.
In order to evaluate the pulmonary function, the response to methacholine in conscious mice was determined, 24 hours after the last exposure to OVA. The mice were exposed to increasing methacholine concentrations (5 and 20 mg/mL) in the form of aerosol using an ultrasonic nebulizer during 2 minutes. The degree of bronchoconstriction was expressed as the enhanced […] (Penh) which correlates to the mouse air resistance, impedance and pressure within the pleura. The Penh was calculated using the formula Penh=[(Te/Rt−1)×(PEF/PIF)], where Te is expiratory time, Rt is relaxation time, PEF is peak expiratory flow and PIF is peak inspiratory flow×0.67 coefficient.
After measuring airway hyperreactivity, the mice were sacrificed and bronchoalveolar lavage (BAL) of the right lung was collected. The total number of cells in the BAL fluid was determined.

[3] = tested on: intestinal inflammatory disease (IID) induced by 3% dextran sulfate sodium; assay: Intestinal inflammatory disease induced by dextran sulfate sodium (DSS) in the mouse; assay type: in vivo, mice of strain C57BL/6J-664; conditions: for disease clinical score (0 to 6 scale): two DSS cycles
Text: The induction of the intestinal inflammatory disease described below is a representative model for the evaluation of therapeutic strategies to treat Crohn's disease and ulcerative colitis. 7-8 week old female mice of strain C57BL/6J-664 were used. The intestinal inflammatory disease (IID) was induced by feeding the mice with 3% dextran sulfate sodium (DSS; MW 40,000) dissolved in drinking water in 2 cycles. Each cycle consisted of 7 days with 3% DSS in the drinking water separated by 7 days with regular water. A daily clinical evaluation of the animals was performed in which the body weight, the consistency of the faeces and the presence of blood in the faeces were determined. Thus, the validated score of the clinical activity of the disease was evaluated with a 0 to 6 scale, considering the following parameters: consistency of the faeces, presence or absence of fecal blood and loss of weight.
At the end of the first cycle of exposure to DSS, the mice were divided into the following treatment groups: a first group was administered intraperitoneal (i.p) injections of vehicle (0.9% NaCl). Another group received intramuscular injections of Solu-Medrol, a standard IID treatment, at a dose of 10 mg/kg/day. A third group was administered i.p. injections of potassium 2,5-diacetroxybenzene sulfonate (DABS, 100 mg/kg/day). The last group was treated orally with 125 mg/kg day of DABS.

Leishmania major = assay: Experimental infection with Leishmania major in mouse paw pad (lesion size); assay type: in vivo, Leishmania major in BALB/c female mice
Text: This model is based in the massive inoculation of Leishmania promatigotes in the mouse paw pad. Under these conditions, the parasite induces a progressive inflammation correlated with the multiplication of parasites at the site of inoculation. BALB/c strain female mice that developed severe and uncontrolled injuries were used (Foote S J, Handman E. Brief Funct Genomic Proteomic, 2005). This model has been used in pharmacology to monitor the therapeutic capacity of new leishmanicide compounds and the preventive capacity of potential vaccines against leishmaniasis ((Nelson K G et al. Antimicrob Agents Chemother. 2006).
The animals were inoculated with 5×10^6 of L. major promastigotes (strain Hervás) in 50 μL of PBS into the plantar pad of the right back paw. As negative control of the infection, a group of mice inoculated with 50 μL of PBS was used. The sizes of the lesions were measured every 7 days until the animals were sacrificed (week 9) using a Vernier caliper. The thickness of the right back paw (infected) and the left back paw (uninfected) of all the animals was measured at the base of the fifth toe. The progression of the inflammation is represented as the difference in thickness between the infected and the non-infected paws. […]

Sequence of fibroblast growth factor-1 (FGF-1) (P05230 whole entry, species assumed): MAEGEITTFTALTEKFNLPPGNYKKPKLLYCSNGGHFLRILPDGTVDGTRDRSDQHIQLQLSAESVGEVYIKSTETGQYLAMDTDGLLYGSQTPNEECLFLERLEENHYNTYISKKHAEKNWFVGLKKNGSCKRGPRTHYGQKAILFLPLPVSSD

Molecule: CC(=O)Oc1ccc(OC(C)=O)c(S(=O)(=O)O)c1 [2,5-diacetoxybenzenesulfonic acid]
- state of the compound when bound to FGF-1 (co-crystal electron density) [1]: conserves the acetoxyl groups in positions 2 and 5 when it binds to the protein

Molecule: CC(=O)Oc1ccc(O)cc1S(=O)(=O)O [2-acetoxy-5-hydroxybenzenesulfonic acid]
- state of the compound when bound to FGF-1 (co-crystal electron density) [1]: conserves the acetoxyl group in position 2 when it binds to the protein

Molecule: CC(=O)Oc1ccc(O)c(S(=O)(=O)O)c1 [5-acetoxy-2-hydroxybenzenesulfonic acid]
- state of the compound when bound to FGF-1 (co-crystal electron density) [1]: conserves the acetoxyl group in position 5 when it binds to the protein

Molecule: CC(=O)Oc1ccc(O)c(S(=O)(=O)[O-])c1.[K+] [5A-2HBS, potassium 5-acetoxy-2-hydroxybenzene sulfonate]
- inhibition of FGF-1 induced mitogenesis [2]: Inhibition of FGF-1 induced mitogenesis
- rat glioma cell proliferation (rat C6 glioma cells): inhibition of rat glioma cell proliferation

Molecule: CC(=O)Oc1ccc(OC(C)=O)c(S(=O)(=O)[O-])c1.[K+] [DABS, potassium 2,5-diacetoxybenzene sulfonate]
- methacholine induced bronchoconstriction (Penh) (OVA-sensitized mice; 100 mg/kg/day i.p. from day 2): completely prevented
- methacholine induced bronchoconstriction (Penh) (OVA-sensitized mice; 100 mg/kg/day i.p. from day 8): completely prevented
- presence of cells in bronchoalveolar lavage (BAL) (OVA-sensitized mice; 100 mg/kg/day i.p., right lung BAL, vs vehicle): significantly reduced
- increase of the Penh after exposure to methacholine vs saline (OVA-sensitized mice; mouse, in vivo): do not show a significant increase of the Penh
- reduction of BAL cells compared with Combivent (OVA-sensitized mice; mouse, in vivo): even more than the treatment with Combivent
- disease clinical score (0 to 6 scale) ([3]; 100 mg/kg/day i.p.): reduced
- disease clinical score (0 to 6 scale) ([3]; 125 mg/kg/day orally): reduced
- loss of body weight produced by DSS ([3]; DABS 100 mg/kg/day i.p. or 125 mg/kg/day p.o., two 7-day DSS cycles, vs vehicle): reduced; also recorded: significant effect on the body weight
- efficacy compared with standard treatment Solu-Medrol (body weight and clinical score) ([3]; DABS i.p. or p.o. vs Solu-Medrol 10 mg/kg/day i.m.): not lower (in some points it is higher)
- size of the lesion (paw thickness difference) (Leishmania major; 200 mg/kg daily i.p. from day 0 to week 9, effect from the third week post-infection): statistically significant reduction in the size of the lesion
- size of the lesion (paw thickness difference) (Leishmania major; 200 mg/kg/day i.p. from the third week after inoculation, effect from the eighth week): significantly smaller
- inhibition of FGF-1 induced mitogenesis [2]: Inhibition of FGF-1 induced mitogenesis

Molecule: C[C@H]1C[C@@H]2[C@H]([C@@H](O)C[C@@]3(C)[C@H]2CC[C@]3(O)C(=O)COC(=O)CCC(=O)O)[C@@]2(C)C=CC(=O)C=C12 [Solu-Medrol, reference compound]
- effect on body weight ([3]; Solu-Medrol 10 mg/kg/day i.m., two 7-day DSS cycles, vs vehicle): significant effect on the body weight

Molecule: calcium 2-acetoxy-5-hydroxybenzenesulfonate [2A-5HBS]
- inhibition of FGF-1 induced mitogenesis [2]: Inhibition of FGF-1 induced mitogenesis
